Legend:
[1] = target: T1, rat TRPV1 (Rattus norvegicus, UniProt O35433); experiment: Functional assay: block of capsaicin-induced Ca2+ influx, rat assay (rTRPV1/HEK293, FLIPR); assay type: cell-based; conditions: rTRPV1/HEK293 cells, capsaicin challenge, Fluo-3 fluorescence; mean; > value = solubility limit in assay medium
T1 construct: expressed in transfected cells; host or cells: HEK293 (rTRPV1/HEK293), geneticin selection
Method in brief: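 HEK293 cells expressing rat TRPV1, loaded with fluo3 and preincubated 30 min with compound in 20 μM Ca2+ buffer before capsaicin challenge. Block read as fluo3 fluorescence change over 100 s after agonist, 3-fold series from 10 μM in duplicate. IC50 by non-linear regression, mean values.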

[2] = target: T2, human TRPV1 (Homo sapiens, UniProt Q8NER1); experiment: Functional assay: block of capsaicin-induced Ca2+ influx, human assay (hTRPV1/HEK293, FLIPR); assay type: cell-based; conditions: hTRPV1/HEK293 cells, 150 nM capsaicin challenge, Fluo-3 fluorescence; mean; > value = solubility limit in assay medium
T2 construct: expressed in transfected cells; host or cells: HEK293 (hTRPV1/HEK293), zeocin selection
T2 sequence (Q8NER1 whole entry): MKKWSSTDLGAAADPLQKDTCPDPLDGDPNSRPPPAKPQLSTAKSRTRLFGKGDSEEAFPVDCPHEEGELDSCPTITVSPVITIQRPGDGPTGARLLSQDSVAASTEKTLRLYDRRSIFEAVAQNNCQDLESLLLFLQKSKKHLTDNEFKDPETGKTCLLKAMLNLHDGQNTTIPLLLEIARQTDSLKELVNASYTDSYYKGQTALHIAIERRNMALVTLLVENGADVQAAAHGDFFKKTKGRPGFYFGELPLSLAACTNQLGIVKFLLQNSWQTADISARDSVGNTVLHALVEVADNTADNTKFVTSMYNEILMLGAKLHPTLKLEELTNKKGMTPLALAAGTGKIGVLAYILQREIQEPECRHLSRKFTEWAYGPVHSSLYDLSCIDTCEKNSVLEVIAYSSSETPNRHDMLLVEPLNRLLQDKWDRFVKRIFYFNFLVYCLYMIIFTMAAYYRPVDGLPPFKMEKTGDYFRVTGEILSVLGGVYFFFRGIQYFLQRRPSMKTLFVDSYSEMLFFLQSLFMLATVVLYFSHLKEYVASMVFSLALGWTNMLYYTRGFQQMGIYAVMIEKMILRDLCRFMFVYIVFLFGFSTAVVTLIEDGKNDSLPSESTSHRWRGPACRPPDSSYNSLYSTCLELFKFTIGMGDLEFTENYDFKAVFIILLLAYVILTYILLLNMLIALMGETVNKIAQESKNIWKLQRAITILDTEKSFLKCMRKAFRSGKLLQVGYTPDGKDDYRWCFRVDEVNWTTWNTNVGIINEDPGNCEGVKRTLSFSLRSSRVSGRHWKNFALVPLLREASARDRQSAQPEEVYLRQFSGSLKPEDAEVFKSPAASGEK
Method in brief: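 HEK293 cells stably expressing human TRPV1, fluo3-loaded, preincubated 30 min with compound (serial 3-fold dilutions from 10 μM, duplicate) in 20 μM Ca2+ buffer. Capsaicin response taken as fluo3 fluorescence change before vs 100 s after agonist; IC50 by non-linear regression, mean values; free base or TFA salt.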

T1 sequence (O35433 whole entry): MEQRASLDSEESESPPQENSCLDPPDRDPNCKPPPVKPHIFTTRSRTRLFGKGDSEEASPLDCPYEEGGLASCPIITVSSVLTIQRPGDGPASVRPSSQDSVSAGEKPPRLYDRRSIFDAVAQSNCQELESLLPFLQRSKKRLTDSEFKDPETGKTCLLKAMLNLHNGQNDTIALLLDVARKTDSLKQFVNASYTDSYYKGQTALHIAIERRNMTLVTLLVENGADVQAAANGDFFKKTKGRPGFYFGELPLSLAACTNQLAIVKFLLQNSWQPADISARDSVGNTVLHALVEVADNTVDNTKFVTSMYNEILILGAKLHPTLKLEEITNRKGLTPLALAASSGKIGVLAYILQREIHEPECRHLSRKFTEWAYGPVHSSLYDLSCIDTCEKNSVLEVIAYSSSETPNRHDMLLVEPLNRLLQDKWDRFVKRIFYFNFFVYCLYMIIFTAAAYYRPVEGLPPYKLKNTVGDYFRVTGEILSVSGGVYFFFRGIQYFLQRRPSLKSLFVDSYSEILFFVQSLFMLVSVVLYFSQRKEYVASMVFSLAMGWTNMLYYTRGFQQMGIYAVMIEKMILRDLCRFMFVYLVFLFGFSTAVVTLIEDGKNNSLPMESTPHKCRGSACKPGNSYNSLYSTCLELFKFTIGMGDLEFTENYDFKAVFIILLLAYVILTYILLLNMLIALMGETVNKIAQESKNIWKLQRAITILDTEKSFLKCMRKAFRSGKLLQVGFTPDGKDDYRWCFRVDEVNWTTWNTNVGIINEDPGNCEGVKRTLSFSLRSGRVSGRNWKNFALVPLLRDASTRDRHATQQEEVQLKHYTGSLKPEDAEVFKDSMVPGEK

SMILES: CC(C)(C(=O)O)c1ccc(Nc2ncnc3sc(Nc4c(Cl)cccc4Cl)nc23)cc1 [Example 230, 2-[4-({2-[(2,6-Dichlorophenyl)amino][1,3]thiazolo[5,4-d]pyrimidin-7-yl}amino)phenyl]-2-methylpropanoic acid]
- IC50 [1]: 2 nM
- IC50 [2]: 43 nM

SMILES: CC(C)OC(=O)C(C)(C)c1ccc(Nc2ncnc3sc(Nc4c(Cl)cccc4Cl)nc23)cc1 [Example 231, 1-Methylethyl 2-[4-({2-[(2,6-dichlorophenyl)amino][1,3]thiazolo[5,4-d]pyrimidin-7-yl}amino)phenyl]-2-methylpropanoate]
- IC50 [1]: 81 nM
- IC50 [2]: 698 nM

SMILES: FC(F)(F)c1ccc(Nc2ncnc3sc(NC4CCCCC4)nc23)cc1 [Example 232, N^2-Cyclohexyl-N^7-[4-(trifluoromethyl)phenyl][1,3]thiazolo[5,4-d]pyrimidine-2,7-diamine]
- IC50 [1]: 3190 nM
- IC50 [2]: > 6670 nM

SMILES: FC(F)(F)c1ccc(Nc2ncnc3sc(NC4CCCCC4)nc23)cn1 [Example 233, N^2-Cyclohexyl-N^7-[6-(trifluoromethyl)pyridin-3-yl][1,3]thiazolo[5,4-d]pyrimidine-2,7-diamine]
- IC50 [1]: 7720 nM
- IC50 [2]: 7070 nM

SMILES: N#Cc1cc(Cl)c(Nc2nc3c(Nc4ccc(C(F)(F)F)cc4)ncnc3s2)c(Cl)c1 [Example 234, 3,5-Dichloro-4-[7-(4-trifluoromethyl-phenylamino)-thiazolo[5,4-d]pyrimidin-2-ylamino]-benzonitrile]
- IC50 [1]: 68 nM
- IC50 [2]: 140 nM

SMILES: NC(=O)c1cc(Cl)c(Nc2nc3c(Nc4ccc(C(F)(F)F)cc4)ncnc3s2)c(Cl)c1 [Example 235, 3,5-Dichloro-4-[7-(4-trifluoromethyl-phenylamino)-thiazolo[5,4-d]pyrimidin-2-ylamino]-benzamide]
- IC50 [1]: 61 nM
- IC50 [2]: 90 nM

SMILES: CS(=O)(=O)c1ccc(Nc2ncnc3sc(Nc4c(Cl)cc(C#N)cc4Cl)nc23)cc1 [Example 236, 3,5-Dichloro-4-[7-(4-methanesulfonyl-phenylamino)-thiazolo[5,4-d]pyrimidin-2-ylamino]-benzonitrile]
- IC50 [1]: 38 nM
- IC50 [2]: 115 nM

SMILES: CS(=O)(=O)c1ccc(Nc2ncnc3sc(Nc4c(Cl)cc(C(N)=O)cc4Cl)nc23)cc1 [Example 237, 3,5-Dichloro-4-[7-(4-methanesulfonyl-phenylamino)-thiazolo[5,4-d]pyrimidin-2-ylamino]-benzamide]
- IC50 [1]: 189 nM
- IC50 [2]: 840 nM

SMILES: FC(F)(F)c1ccc(Nc2ncnc3sc(Nc4c(Cl)cc(CN5CCOCC5)cc4Cl)nc23)cc1 [Example 238, N^2-(2,6-Dichloro-4-morpholin-4-ylmethyl-phenyl)-N^7-(4-trifluoromethyl-phenyl)-thiazolo[5,4-d]pyrimidine-2,7-diamine]
- IC50 [1]: 215 nM
- IC50 [2]: 223 nM

SMILES: FC(F)(F)c1ccc(Nc2ncnc3sc(Nc4c(Cl)cc(CN5CCC5)cc4Cl)nc23)cc1 [Example 239, N^2-(4-Azetidin-1-ylmethyl-2,6-dichloro-phenyl)-N^7-(4-trifluoromethy-phenyl)-thiazolo[5,4-d]pyrimidine-2,7-diamine]
- IC50 [1]: 3750 nM
- IC50 [2]: 3420 nM

SMILES: NCc1cc(Cl)c(Nc2nc3c(Nc4ccc(C(F)(F)F)cc4)ncnc3s2)c(Cl)c1 [Example 240, N^2-(4-Aminomethyl-2,6-dichloro-phenyl)-N^7-(4-trifluoromethyl-phenyl)-thiazolo[5,4-d]pyrimidine-2,7-diamine]
- IC50 [1]: 61 nM
- IC50 [2]: 154 nM

SMILES: COC(=O)c1cc(Cl)c(Nc2nc3c(Nc4ccc(C(F)(F)F)cc4)ncnc3s2)c(Cl)c1 [Example 241, 3,5-Dichloro-4-[7-(4-trifluoromethyl-phenylamino)-thiazolo[5,4-d]pyrimidin-2-ylamino]-benzoic acid methyl ester]
- IC50 [1]: 3200 nM
- IC50 [2]: 820 nM

SMILES: OCc1cc(Cl)c(Nc2nc3c(Nc4ccc(C(F)(F)F)cc4)ncnc3s2)c(Cl)c1 [Example 242, {3,5-Dichloro-4-[7-(4-trifluoromethyl-phenylamino)-thiazolo[5,4-d]pyrimidin-2-ylamino]-phenyl}-methanol]
- IC50 [1]: 1 nM
- IC50 [2]: 1 nM

SMILES: O=C(O)c1cc(Cl)c(Nc2nc3c(Nc4ccc(C(F)(F)F)cc4)ncnc3s2)c(Cl)c1 [Example 243, 3,5-Dichloro-4-[7-(4-trifluoromethyl-phenylamino)-thiazolo[5,4-d]pyrimidin-2-ylamino]-benzoic acid]
- IC50 [1]: 6540 nM
- IC50 [2]: 4610 nM

SMILES: Cc1nc(Nc2ccc(C(C)(C)C)cc2)c2nc(Nc3c(C)cccc3C)sc2n1 [Example 244, N^7-(4-tert-Butyl-phenyl)-N^2-(2,6-dimethyl-phenyl)-5-methyl-thiazolo[5,4-d]pyrimidine-2,7-diamine]
- IC50 [1]: 3 nM
- IC50 [2]: 12 nM

SMILES: Cc1nc(Nc2ccc(C(F)(F)F)cc2)c2nc(Nc3c(C)cccc3C)sc2n1 [Example 245, N^2-(2,6-Dimethyl-phenyl)-5-methyl-N^7-(4-trifluoromethyl-phenyl)-thiazolo[5,4-d]pyrimidine-2,7-diamine]
- IC50 [1]: 5 nM
- IC50 [2]: 6 nM

SMILES: Cc1nc(Nc2ccc(C(F)(F)F)nc2)c2nc(Nc3c(C)cccc3C)sc2n1 [Example 246, N^2-(2,6-Dimethyl-phenyl)-5-methyl-N^7-(6-trifluoromethyl-pyridin-3-yl)-thiazolo[5,4-d]pyrimidine-2,7-diamine]
- IC50 [1]: 22 nM
- IC50 [2]: 18 nM

SMILES: Cc1nc(Nc2ccc(C(F)(F)F)c(Cl)c2)c2nc(Nc3c(C)cccc3C)sc2n1 [Example 247, N^7-(3-Chloro-4-trifluoromethyl-phenyl)-N^2-(2,6-dimethyl-phenyl)-5-methyl-thiazolo[5,4-d]pyrimidine-2,7-diamine]
- IC50 [1]: 19 nM
- IC50 [2]: 35 nM

SMILES: C[C@@H](O)CNc1nc(Nc2ccc(C(F)(F)F)cc2)c2nc(Nc3c(Cl)cccc3Cl)sc2n1 [Example 250, (R)-1-[2-(2,6-Dichloro-phenylamino)-7-(4-trifluoromethyl-phenylamino)-thiazolo[5,4-d]pyrimidin-5-ylamino]-propan-2-ol]
- IC50 [1]: 0.7 nM
- IC50 [2]: 3.3 nM

SMILES: CC(C)(O)CNc1nc(Nc2ccc(C(F)(F)F)cc2)c2nc(Nc3c(Cl)cccc3Cl)sc2n1 [Example 251, 1-[2-(2,6-Dichloro-phenylamino)-7-(4-trifluoromethyl-phenylamino)-thiazolo[5,4-d]pyrimidin-5-ylamino]-2-methyl-propan-2-ol]
- IC50 [1]: 110 nM
- IC50 [2]: 290 nM

Source: patent US20080004253A1, “Thiazolopyrimidine modulators of TRPV1” (priority 2006, published 2008)
